Measured values reported in the NIST ThermoML archive (doi:10.1016/j.jct.2012.02.011).
Numbers after ± are expanded uncertainties.

Assay: relative permittivity at various frequencies (dimensionless); xn = mol fraction of the nth substance listed
Settings: 101.33 kPa, Liquid, Frequency=3 MHz, OH-301

O=[N+]([O-])c1ccccc1 [nitrobenzene] + COCCO
relative permittivity
Settings	293.15 K	298.15 K	303.15 K	308.15 K	313.15 K
x1 = 0.0505	19.13 ± 0.05	18.51 ± 0.05	17.93 ± 0.05	17.37 ± 0.05	16.82 ± 0.05
x1 = 0.1011	20.66 ± 0.05	19.96 ± 0.05	19.31 ± 0.05	18.66 ± 0.05	18.05 ± 0.05
x1 = 0.2003	23.41 ± 0.05	22.63 ± 0.05	21.89 ± 0.05	21.19 ± 0.05	20.56 ± 0.05
x1 = 0.3003	25.97 ± 0.05	25.12 ± 0.05	24.31 ± 0.05	23.59 ± 0.05	22.96 ± 0.05
x1 = 0.4002	28.41 ± 0.05	27.45 ± 0.05	26.59 ± 0.05	25.84 ± 0.05	25.16 ± 0.05
x1 = 0.4998	30.69 ± 0.06	29.62 ± 0.06	28.69 ± 0.05	27.94 ± 0.05	27.22 ± 0.05
x1 = 0.5997	32.75 ± 0.06	31.57 ± 0.06	30.58 ± 0.05	29.81 ± 0.05	29.09 ± 0.05
x1 = 0.7001	34.4 ± 0.06	33.23 ± 0.06	32.18 ± 0.06	31.31 ± 0.05	30.59 ± 0.05
x1 = 0.752	35.1 ± 0.06	33.87 ± 0.06	32.8 ± 0.06	31.91 ± 0.05	31.17 ± 0.05
x1 = 0.8004	35.62 ± 0.06	34.35 ± 0.06	33.24 ± 0.06	32.3 ± 0.05	31.54 ± 0.05
x1 = 0.8491	36.03 ± 0.06	34.74 ± 0.06	33.57 ± 0.06	32.61 ± 0.05	31.8 ± 0.05
x1 = 0.8974	36.21 ± 0.06	34.89 ± 0.06	33.72 ± 0.06	32.76 ± 0.05	32 ± 0.05
x1 = 0.9502	36.26 ± 0.06	34.94 ± 0.06	33.8 ± 0.06	32.88 ± 0.05	32.2 ± 0.05
x1 = 1	35.91 ± 0.06	34.78 ± 0.06	33.84 ± 0.05	33.13 ± 0.05	32.66 ± 0.04

CCCCOCCO [2-butoxyethan-1-ol] + O=[N+]([O-])c1ccccc1
relative permittivity
Settings	293.15 K	298.15 K	303.15 K	308.15 K	313.15 K
x2 = 0	9.78 ± 0.04	9.35 ± 0.04	8.88 ± 0.04	8.39 ± 0.04	7.91 ± 0.04
x2 = 0.05	12.73 ± 0.05	11.87 ± 0.05	11.04 ± 0.05	10.26 ± 0.05	9.54 ± 0.05
x2 = 0.0999	15.28 ± 0.05	14.32 ± 0.06	13.35 ± 0.06	12.37 ± 0.06	11.45 ± 0.05
x2 = 0.2003	19.6 ± 0.05	18.58 ± 0.06	17.59 ± 0.06	16.63 ± 0.06	15.76 ± 0.06
x2 = 0.3	23.44 ± 0.06	22.39 ± 0.06	21.39 ± 0.06	20.42 ± 0.05	19.59 ± 0.06
x2 = 0.4	27 ± 0.06	25.85 ± 0.06	24.78 ± 0.06	23.77 ± 0.06	22.92 ± 0.06
x2 = 0.5	30.19 ± 0.06	28.96 ± 0.06	27.82 ± 0.06	26.74 ± 0.06	25.84 ± 0.06
x2 = 0.6	32.88 ± 0.06	31.6 ± 0.06	30.44 ± 0.06	29.34 ± 0.06	28.49 ± 0.06
x2 = 0.7	34.91 ± 0.06	33.59 ± 0.06	32.5 ± 0.06	31.36 ± 0.06	30.53 ± 0.06
x2 = 0.7493	35.71 ± 0.07	34.34 ± 0.07	33.12 ± 0.06	32.06 ± 0.06	31.22 ± 0.05
x2 = 0.8	36.29 ± 0.07	34.85 ± 0.07	33.69 ± 0.06	32.47 ± 0.06	31.69 ± 0.05
x2 = 0.8506	36.65 ± 0.07	35.21 ± 0.07	33.91 ± 0.06	32.79 ± 0.06	31.92 ± 0.05
x2 = 0.9	36.77 ± 0.07	35.26 ± 0.07	33.96 ± 0.06	32.85 ± 0.06	32.04 ± 0.05
x2 = 0.9499	36.52 ± 0.07	35.09 ± 0.07	33.86 ± 0.06	32.84 ± 0.05	32.1 ± 0.05

CCOCCO [2-ethoxyethan-1-ol] + O=[N+]([O-])c1ccccc1
relative permittivity
Settings	293.15 K	298.15 K	303.15 K	308.15 K	313.15 K
x2 = 0	14.25 ± 0.04	14.03 ± 0.04	13.76 ± 0.04	13.44 ± 0.04	13.07 ± 0.04
x2 = 0.0499	16.23 ± 0.05	15.75 ± 0.05	15.23 ± 0.05	14.71 ± 0.05	14.17 ± 0.04
x2 = 0.0997	18.22 ± 0.05	17.59 ± 0.05	16.95 ± 0.05	16.29 ± 0.05	15.64 ± 0.05
x2 = 0.2	21.92 ± 0.05	21.16 ± 0.05	20.41 ± 0.05	19.67 ± 0.05	18.98 ± 0.05
x2 = 0.3002	25.24 ± 0.05	24.4 ± 0.05	23.54 ± 0.05	22.77 ± 0.05	22 ± 0.05
x2 = 0.4001	28.2 ± 0.05	27.24 ± 0.06	26.32 ± 0.05	25.46 ± 0.05	24.66 ± 0.05
x2 = 0.5	30.85 ± 0.06	29.8 ± 0.06	28.81 ± 0.05	27.95 ± 0.05	27.13 ± 0.05
x2 = 0.6003	33.21 ± 0.06	32.07 ± 0.06	31.07 ± 0.06	30.15 ± 0.05	29.38 ± 0.06
x2 = 0.7	34.94 ± 0.06	33.75 ± 0.06	32.71 ± 0.06	31.81 ± 0.05	31.04 ± 0.05
x2 = 0.7491	35.66 ± 0.06	34.39 ± 0.06	33.29 ± 0.06	32.33 ± 0.05	31.52 ± 0.05
x2 = 0.7996	36.11 ± 0.07	34.77 ± 0.06	33.6 ± 0.06	32.6 ± 0.05	31.76 ± 0.05
x2 = 0.8504	36.37 ± 0.07	35 ± 0.07	33.73 ± 0.06	32.69 ± 0.06	31.81 ± 0.05
x2 = 0.9001	36.43 ± 0.07	34.99 ± 0.07	33.69 ± 0.06	32.64 ± 0.06	31.79 ± 0.05
x2 = 0.9456	36.26 ± 0.07	34.87 ± 0.07	33.66 ± 0.06	32.67 ± 0.05	31.9 ± 0.05

CCCOCCO [2-propoxyethanol] + O=[N+]([O-])c1ccccc1
relative permittivity
Settings	293.15 K	298.15 K	303.15 K	308.15 K	313.15 K
x2 = 0	11.76 ± 0.04	11.5 ± 0.04	11.19 ± 0.04	10.91 ± 0.04	10.62 ± 0.04
x2 = 0.0497	14.29 ± 0.05	13.73 ± 0.05	13.13 ± 0.05	12.57 ± 0.05	12.02 ± 0.04
x2 = 0.1008	16.55 ± 0.05	15.87 ± 0.05	15.15 ± 0.05	14.52 ± 0.05	13.88 ± 0.05
x2 = 0.2	20.53 ± 0.05	19.71 ± 0.05	18.92 ± 0.05	18.2 ± 0.05	17.54 ± 0.05
x2 = 0.3004	24.06 ± 0.05	23.14 ± 0.05	22.27 ± 0.05	21.5 ± 0.05	20.81 ± 0.05
x2 = 0.4	27.18 ± 0.05	26.2 ± 0.06	25.26 ± 0.05	24.45 ± 0.05	23.7 ± 0.05
x2 = 0.5	30.06 ± 0.06	28.98 ± 0.06	27.97 ± 0.06	27.11 ± 0.05	26.32 ± 0.05
x2 = 0.6008	32.56 ± 0.06	31.43 ± 0.06	30.36 ± 0.06	29.47 ± 0.05	28.73 ± 0.05
x2 = 0.6997	34.55 ± 0.06	33.33 ± 0.06	32.27 ± 0.06	31.35 ± 0.05	30.61 ± 0.05
x2 = 0.7489	35.32 ± 0.06	34.05 ± 0.06	32.96 ± 0.06	32.01 ± 0.05	31.26 ± 0.05
x2 = 0.8	35.94 ± 0.07	34.57 ± 0.06	33.43 ± 0.06	32.48 ± 0.05	31.69 ± 0.05
x2 = 0.8499	36.33 ± 0.07	34.95 ± 0.07	33.75 ± 0.06	32.73 ± 0.05	31.91 ± 0.05
x2 = 0.9004	36.49 ± 0.06	35.1 ± 0.07	33.86 ± 0.06	32.83 ± 0.05	32.03 ± 0.05
x2 = 0.9488	36.3 ± 0.07	34.95 ± 0.06	33.8 ± 0.06	32.85 ± 0.05	32.14 ± 0.05
